Details: 1.0% DMSO, 24-hour incubation at ambient temperature, maximum theoretical compound concentration 100 μM; for pH 2 solubility: 0.1N HCL; for pH 7 solubility: 1×PBS buffer (pH 7.4)

pH 2 solubility | pH 7 solubility | Compound
45 μM | 6 μM | CC(C)(C#Cc1ccc(-c2ccc(Cl)c3c(N(C(=O)C[N+](C)(C)C)S(C)(=O)=O)nn(CC(F)(F)F)c23)c([C@H](Cc2cc(F)cc(F)c2)NC(=O)Cn2nc(C(F)(F)F)c3c2C(F)(F)[C@@H]2C[C@H]32)n1)S(C)(=O)=O [Compound 5, 2-(N-(4-chloro-7-(2-((S)-1-(2-((3bS,4aR)-5,5-difluoro (trifluoromethyl)-3b,4,4a,5-tetrahydro-1H-cyclopropa[3,4]cyclopenta[1,2-c]pyrazolyl)acetamido)-2-(3,5-difluorophenyl)ethyl)-6-(3-methyl-3-(methylsulfonyl)but-1-ynyl)pyridin-3-yl)-1-(2,2,2-trifluoroethyl)-1H-indazol-3-yl)methylsulfonamido)-N,N,N-trimethyl-2-oxoethan-1-aminium]
1/1 μM | 1/1 μM | COC(=O)N[C@@H](C)C(=O)N(c1nn(CC(F)(F)F)c2c(-c3ccc(C#CC(C)(C)S(C)(=O)=O)nc3[C@H](Cc3cc(F)cc(F)c3)NC(=O)Cn3nc(C(F)(F)F)c4c3C(F)(F)[C@@H]3C[C@H]43)ccc(Cl)c12)S(C)(=O)=O [Compound 7, methyl ((5)-1-(N-(4-chloro-7-(2-((S)-1-(2-((3bS,4aR)-5,5-difluoro-3-(trifluoromethyl)-3b,4,4a,5-tetrahydro-1H-cyclopropa[3,4]cyclopenta[1,2-c]pyrazol-1-yl)acetamido)-2-(3,5-difluorophenyl)ethyl)-6-(3-methyl-3-(methylsulfonyl)but-1-yn-1-yl)pyridin-3-yl)-1-(2,2,2-trifluoroethyl)-1H-indazol-3-yl)methylsulfonamido)-1-oxopropan-2-yl)carbamate]
51 μM | 1 μM | CC(C)[C@@H](C(=O)N(c1nn(CC(F)(F)F)c2c(-c3ccc(C#CC(C)(C)S(C)(=O)=O)nc3[C@H](Cc3cc(F)cc(F)c3)NC(=O)Cn3nc(C(F)(F)F)c4c3C(F)(F)[C@@H]3C[C@H]43)ccc(Cl)c12)S(C)(=O)=O)N(C)C [Compound 8, N-(4-chloro-7-(2-((S)-1-(2-((3bS,4aR)-5,5-difluoro-3-(trifluoromethyl)-3b,4,4a,5-tetrahydro-1H-cyclopropa[3,4]cyclopenta[1,2-c]pyrazol-1-yl)acetamido)-2-(3,5-difluorophenyl)ethyl)-6-(3-methyl-3-(methylsulfonyl)but-1-yn-1-yl)pyridin-3-yl)-1-(2,2,2-trifluoroethyl)-1H-indazol-3-yl)-2-(dimethylamino)-3-methyl-N-(methylsulfonyl)butanamide]
1/1 μM | 1/1 μM | COCCOCCOCCOCCOCC(=O)N(c1nn(CC(F)(F)F)c2c(-c3ccc(C#CC(C)(C)S(C)(=O)=O)nc3[C@H](Cc3cc(F)cc(F)c3)NC(=O)Cn3nc(C(F)(F)F)c4c3C(F)(F)[C@@H]3C[C@H]43)ccc(Cl)c12)S(C)(=O)=O [Compound 9, N-(4-chloro-7-(2-((S)-1-(2-((3bS,4aR)-5,5-difluoro-3-(trifluoromethyl)-3b,4,4a,5-tetrahydro-1H-cyclopropa[3,4]cyclopenta[1,2-c]pyrazol-1-yl)acetamido)-2-(3,5-difluorophenyl)ethyl)-6-(3-methyl-3-(methylsulfonyl)but-1-ynyl)pyridin-3-yl)-1-(2,2,2-trifluoroethyl)-1H-indazol-3-yl)-N-(methylsulfonyl)-2,5,8,11,14-pentaoxahexadecan-16-amide]
1/1 μM | 1/1 μM | COC(=O)CCC(=O)N(c1nn(CC(F)(F)F)c2c(-c3ccc(C#CC(C)(C)S(C)(=O)=O)nc3[C@H](Cc3cc(F)cc(F)c3)NC(=O)Cn3nc(C(F)(F)F)c4c3C(F)(F)[C@@H]3C[C@H]43)ccc(Cl)c12)S(C)(=O)=O [Compound 10, methyl 4-(N-(4-chloro-7-(2-((S)-1-(2-((3bS,4aR)-5,5-difluoro-3-(trifluoromethyl)-3b,4,4a,5-tetrahydro-1H-cyclopropa[3,4]cyclopenta[1,2-c]pyrazol-1-yl)acetamido)-2-(3,5-difluorophenyl)ethyl)-6-(3-methyl-3-(methylsulfonyl)but-1-yn-1-yl)pyridin-3-yl)-1-(2,2,2-trifluoroethyl)-1H-indazol-3-yl)methylsulfonamido)-4-oxobutanoate]
100 μM | 43 μM | CC(C)(C#Cc1ccc(-c2ccc(Cl)c3c(N(C(=O)[C@@H](N)CCCCN)S(C)(=O)=O)nn(CC(F)(F)F)c23)c([C@H](Cc2cc(F)cc(F)c2)NC(=O)Cn2nc(C(F)(F)F)c3c2C(F)(F)[C@@H]2C[C@H]32)n1)S(C)(=O)=O [Compound 11, (S)-2,6-diamino-N-(4-chloro-7-(2-((S)-1-(2-((3bS,4aR)-5,5-difluoro-3-(trifluoromethyl)-3b,4,4a,5-tetrahydro-1H-cyclopropa[3,4]cyclopenta[1,2-c]pyrazol-1-yl)acetamido)-2-(3,5-difluorophenyl)ethyl)-6-(3-methyl-3-(methylsulfonyl)but-1-yn-1-yl)pyridin-3-yl)-1-(2,2,2-trifluoroethyl)-1H-indazol-3-yl)-N-(methylsulfonyl)hexanamide]
65 μM | 8 μM | CC(C)(C#Cc1ccc(-c2ccc(Cl)c3c(N(C(=O)CN)S(C)(=O)=O)nn(CC(F)(F)F)c23)c([C@H](Cc2cc(F)cc(F)c2)NC(=O)Cn2nc(C(F)(F)F)c3c2C(F)(F)[C@@H]2C[C@H]32)n1)S(C)(=O)=O [Compound 12, 2-amino-N-(4-chloro-7-(2-((S)-1-(2-((3bS,4aR)-5,5-difluoro (trifluoromethyl)-3b,4,4a,5-tetrahydro-1H-cyclopropa[3,4]cyclopenta[1,2-c]pyrazolyl)acetamido)-2-(3,5-difluorophenyl)ethyl)-6-(3-methyl-3-(methylsulfonyl)but-1-ynyl)pyridin-3-yl)-1-(2,2,2-trifluoroethyl)-1H-indazol-3-yl)-N-(methylsulfonyl)acetamide]
1 μM | 90 μM | CC(C)(C#Cc1ccc(-c2ccc(Cl)c3c(N(C(=O)CNC(=O)C(=O)O)S(C)(=O)=O)nn(CC(F)(F)F)c23)c([C@H](Cc2cc(F)cc(F)c2)NC(=O)Cn2nc(C(F)(F)F)c3c2C(F)(F)[C@@H]2C[C@H]32)n1)S(C)(=O)=O [Compound 13, 2-((2-(N-(4-chloro-7-(2-((S)-1-(2-((3bS,4aR)-5,5-difluoro-3-(trifluoromethyl)-3b,4,4a,5-tetrahydro-1H-cyclopropa[3,4]cyclopenta[1,2-c]pyrazol-1-yl)acetamido)-2-(3,5-difluorophenyl)ethyl)-6-(3-methyl-3-(methylsulfonyl)but-1-yn-1-yl)pyridin-3-yl)-1-(2,2,2-trifluoroethyl)-1H-indazol-3-yl)methylsulfonamido)-2-oxoethyl)amino)-2-oxoacetic acid]
7 μM | 1 μM | CC(C)[C@H](N)C(=O)OCCCCC(=O)N(c1nn(CC(F)(F)F)c2c(-c3ccc(C#CC(C)(C)S(C)(=O)=O)nc3[C@H](Cc3cc(F)cc(F)c3)NC(=O)Cn3nc(C(F)(F)F)c4c3C(F)(F)[C@@H]3C[C@H]43)ccc(Cl)c12)S(C)(=O)=O [Compound 14]
1/1 μM | 1/1 μM | CC(C)(CC(=O)O)C(=O)N(c1nn(CC(F)(F)F)c2c(-c3ccc(C#CC(C)(C)S(C)(=O)=O)nc3[C@H](Cc3cc(F)cc(F)c3)NC(=O)Cn3nc(C(F)(F)F)c4c3C(F)(F)[C@@H]3C[C@H]43)ccc(Cl)c12)S(C)(=O)=O [Compound 15, 4-(N-(4-chloro-7-(2-((S)-1-(2-((3bS,4aR)-5,5-difluoro-3-(trifluoromethyl)-3b,4,4a,5-tetrahydro-1H-cyclopropa[3,4]cyclopenta[1,2-c]pyrazol-1-yl)acetamido)-2-(3,5-difluorophenyl)ethyl)-6-(3-methyl-3-(methylsulfonyl)but-1-yn-1-yl)pyridin-3-yl)-1-(2,2,2-trifluoroethyl)-1H-indazol-3-yl)methylsulfonamido)-3,3-dimethyl-4-oxobutanoic acid]
92 μM | 20 μM | CN(C)CCCC[C@H](N)C(=O)N(c1nn(CC(F)(F)F)c2c(-c3ccc(C#CC(C)(C)S(C)(=O)=O)nc3[C@H](Cc3cc(F)cc(F)c3)NC(=O)Cn3nc(C(F)(F)F)c4c3C(F)(F)[C@@H]3C[C@H]43)ccc(Cl)c12)S(C)(=O)=O [Compound 16, ((S)-2-amino-N-(4-chloro-7-(2-((S)-1-(2-((3bS,4aR)-5,5-difluoro-3-(trifluoromethyl)-3b,4,4a,5-tetrahydro-1H-cyclopropa[3,4]cyclopenta[1,2-c]pyrazolyl)acetamido)-2-(3,5-difluorophenyl)ethyl)-6-(3-methyl-3-(methylsulfonyl)but-1-ynyl)pyridin-3-yl)-1-(2,2,2-trifluoroethyl)-1H-indazol-3-yl)-6-(dimethylamino)-N-(methylsulfonyl)hexanamide)]
37 μM | 6 μM | CNCC(=O)N(c1nn(CC(F)(F)F)c2c(-c3ccc(C#CC(C)(C)S(C)(=O)=O)nc3[C@H](Cc3cc(F)cc(F)c3)NC(=O)Cn3nc(C(F)(F)F)c4c3C(F)(F)[C@@H]3C[C@H]43)ccc(Cl)c12)S(C)(=O)=O [Compound 19, (N-(4-chloro-7-(2-((S)-1-(2-((3bS,4aR)-5,5-difluoro (trifluoromethyl)-3b,4,4a,5-tetrahydro-1H-cyclopropa[3,4]cyclopenta[1,2-c]pyrazolyl)acetamido)-2-(3,5-difluorophenyl)ethyl)-6-(3-methyl-3-(methylsulfonyl)but-1-ynyl)pyridin-3-yl)-1-(2,2,2-trifluoroethyl)-1H-indazol-3-yl)-2-(methylamino)-N-(methylsulfonyl)acetamide)]
